Data set [1] concerns the target T1, ATP-dependent translocase ABCB1 (Rattus norvegicus, UniProt P43245). As to the kind of experiment: TP_TRANSPORTER: Western blot, primary hepatocytes. In kind it is functional, cell-based, Hepatocyte.
In data set [2] the target is T1, ATP-dependent translocase ABCB1. As to the kind of experiment: TP_TRANSPORTER: Northern blot from primary hepatocytes. In kind it is functional, cell-based, Hepatocyte.

T1 sequence (P43245 whole entry): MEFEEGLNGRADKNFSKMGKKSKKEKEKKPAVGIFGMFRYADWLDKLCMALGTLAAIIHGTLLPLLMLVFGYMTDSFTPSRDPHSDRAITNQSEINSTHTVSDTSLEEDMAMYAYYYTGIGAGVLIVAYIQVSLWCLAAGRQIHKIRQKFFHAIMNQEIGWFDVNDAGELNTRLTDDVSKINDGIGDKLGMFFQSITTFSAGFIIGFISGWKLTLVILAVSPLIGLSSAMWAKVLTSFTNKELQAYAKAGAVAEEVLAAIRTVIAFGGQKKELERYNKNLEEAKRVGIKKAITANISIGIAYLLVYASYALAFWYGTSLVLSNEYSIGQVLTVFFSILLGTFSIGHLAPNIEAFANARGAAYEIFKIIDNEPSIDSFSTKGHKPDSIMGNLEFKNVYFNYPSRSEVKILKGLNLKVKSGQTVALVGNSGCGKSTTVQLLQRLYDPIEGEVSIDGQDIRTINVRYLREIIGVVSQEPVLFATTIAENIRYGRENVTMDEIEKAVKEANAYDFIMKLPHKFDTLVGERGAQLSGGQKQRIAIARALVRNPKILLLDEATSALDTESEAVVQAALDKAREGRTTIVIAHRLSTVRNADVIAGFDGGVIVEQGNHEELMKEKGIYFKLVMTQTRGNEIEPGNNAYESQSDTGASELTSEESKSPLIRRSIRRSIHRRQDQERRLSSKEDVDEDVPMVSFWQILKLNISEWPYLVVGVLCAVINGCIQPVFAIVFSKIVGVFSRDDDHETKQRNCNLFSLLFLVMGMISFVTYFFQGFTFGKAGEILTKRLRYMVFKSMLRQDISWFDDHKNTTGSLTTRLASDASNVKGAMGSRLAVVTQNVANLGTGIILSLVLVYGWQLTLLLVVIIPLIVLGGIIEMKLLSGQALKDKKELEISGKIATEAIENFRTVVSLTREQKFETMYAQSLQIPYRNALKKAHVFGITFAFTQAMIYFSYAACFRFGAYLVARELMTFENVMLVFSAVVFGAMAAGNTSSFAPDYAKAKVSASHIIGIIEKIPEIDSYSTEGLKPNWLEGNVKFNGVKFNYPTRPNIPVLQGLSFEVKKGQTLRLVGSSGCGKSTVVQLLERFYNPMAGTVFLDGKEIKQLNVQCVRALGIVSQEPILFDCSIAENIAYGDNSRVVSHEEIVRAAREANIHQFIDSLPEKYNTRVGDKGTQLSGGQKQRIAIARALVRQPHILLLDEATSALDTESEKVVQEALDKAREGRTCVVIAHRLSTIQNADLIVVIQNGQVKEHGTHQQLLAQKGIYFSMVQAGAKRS

`C[C@@H]1C[C@H]2[C@@H]3CCC4=CC(=O)C=C[C@]4(C)[C@@]3(F)[C@@H](O)C[C@]2(C)[C@@]1(O)C(=O)CO` [DEXAMETHASONE]: the Activity entry in data set [1] and in data set [2] was “inducer [Decrease]” each time.

The values above are taken from ChEMBL document CHEMBL2074099, “Divergent regulation of the class II P-glycoprotein gene in primary cultures of hepatocytes versus H35 hepatoma by glucocorticoids” (Cell Growth Differ, 1995).
